Measurements: patent publication US20240327439A1, “PHARMACOLOGICAL AGENTS FOR PREVENTING AND TREATING CATARACTS AND PRESBYOPIA EYE DISEASES” (Plex Pharmaceuticals, Inc., priority 2021, published 2024)

System: Bovine lens lysates
Test: Prevention of UVC/H2O2-induced aggregation (opacification) of bovine lens extracts
Type: biochemical
Conditions: bovine lens lysates 2 mg/ml, various concentrations of compound, UV-irradiated, vs vehicle 0.5% DMSO
Procedure: Bovine lens lysates (2 mg/ml, 50 μl) were incubated with various concentrations of CAP1160 (structure shown below) or a vehicle (0.5% DMSO), and then left unexposed (no exposure) or exposed to UV (UV-irradiated). At various time points, wells-containing bovine lens lysates were pictured and the corresponding absorbance at 600 nm (A600) was measured. Representative brightfield images of wells taken 7 min after initial UV exposure (FIG. 1A) and corresponding A600 (FIG. 1B).

Cc1ccc(C(=O)c2cc(O)c(O)c([N+](=O)[O-])c2)cc1 [CAP1160]
opacification of bovine lens protein lysates induced by UV irradiation (absorbance at 600 nm, brightfield images): delays, in a dose-dependent manner, the opacification
